Reference: PMC10065799, “High-throughput profiling of sequence recognition by tyrosine kinases and SH2 domains using bacterial peptide display” (eLife, 2023)
Blank lines part the entries; values can stand above or below the molecule they belong to.

Tests used:
EPHB1 kinase domain = assay: pTyr-Var library bacterial peptide display kinase screen (enrichment scores); type: biochemical, human
c-Src kinase domain = c-Src kinase domain (Homo sapiens, UniProt P12931); assay: as above; type: biochemical;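 for c-Src hit?: Hit requires p below 0.05 and at least twofold variant vs reference change plus filters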
Jak2 = assay: as above; type: biochemical, human
Hck kinase domain = assay: as above; type: biochemical, human
AncSZ kinase domain = assay: as above; type: biochemical;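 for AncSZ hit?: Hit requires p below 0.05 and at least twofold variant vs reference change plus filters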
Fyn kinase domain [1] = assay: as above; type: biochemical, human
MERTK kinase domain = assay: as above; type: biochemical, human
FGFR3 kinase domain = assay: as above; type: biochemical, human
Grb2 SH2 domain = assay: pTyr-Var library SH2 domain screen with SH2-dynabeads (enrichment scores)
c-Abl kinase domain = target: T1, c-Abl kinase domain (Mus musculus, UniProt P00520); assay: pTyr-Var library bacterial peptide display kinase screen (enrichment scores); type: biochemical;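 for c-Abl hit?: Hit requires p below 0.05 and at least twofold variant vs reference change plus filters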
T1 sequence (P00520 242-493 limits assumed): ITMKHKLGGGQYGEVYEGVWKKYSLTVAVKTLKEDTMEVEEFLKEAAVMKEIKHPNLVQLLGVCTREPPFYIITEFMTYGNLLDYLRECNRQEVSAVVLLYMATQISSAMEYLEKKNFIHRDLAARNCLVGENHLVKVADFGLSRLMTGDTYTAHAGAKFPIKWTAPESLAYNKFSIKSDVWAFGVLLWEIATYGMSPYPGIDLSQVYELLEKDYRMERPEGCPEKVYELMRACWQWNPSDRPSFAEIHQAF

FGFR1 kinase domain [2] = assay: as above; type: biochemical, human
Fes = assay: as above; type: biochemical
Fer kinase domain = assay: as above; type: biochemical, mouse
SHP2 C-SH2 domain = assay: pTyr-Var library SH2 domain screen with SH2-dynabeads (enrichment scores)
c-Src SH2 domain = c-Src SH2 domain (Homo sapiens, UniProt P12931); assay: as above; settings: sheet c-Src
EPHB2 kinase domain = assay: pTyr-Var library bacterial peptide display kinase screen (enrichment scores); type: biochemical, human
FGFR1 kinase domain [3] = assay: LC-MS assay of intact SHP2 protein phosphorylation; type: biochemical, human; settings: SHP2 10 μM, kinase 1 μM, 1 hr, 37 °C, 2 to 3 measurements
Method: (§1) The same protocol used to express and purify SH2 domains, excluding co-expression of BirA and addition of biotin, was applied to the expression and purification of the SHP2 variants.
(§2) To pre-activate the kinases, 1 μM of each purified kinase domain was preincubated at 37 °C for 30 min in the same buffer conditions used in the kinase domain peptide display screen, with 1 mM ATP. The reaction of the kinase with SHP2 was initiated with the addition of 10 μM SHP2, and the mixture was incubated in 37 °C for 1 hr. To terminate the reaction, the mixture was quenched with 200 mM EDTA. The reaction mixture was diluted 3:2 in water and injected onto a BEH C8 column (Waters) on a UPLC-MS system (Xevo QToF, Waters). Reverse-phase liquid chromatography was carried out at 0.3 mL/min with solvents A (H2O, 0.1% (v/v) formic acid) and B (acetonitrile, 0.1% (v/v) formic acid). Proteins were eluted over a gradient of 5–95% B for 8.5 min. The protein peak on the chromatogram was deconvoluted using the MaxEnt1 algorithm from 32,000–65,000 Da with a resolution of 1 Da/channel over 30 iterations. Peaks were chosen according to the theoretical MW of the protein within a range of 5 Da, and integrated for the signal intensity.

Fyn kinase domain [4] = assay: LC-MS assay of intact SHP2 protein phosphorylation; type: biochemical, human; settings: SHP2 10 μM, kinase 1 μM, 1 hr, 37 °C, 2 to 3 measurements
Method: as §1, §2

[5] = mean of log2(variant) minus mean of log2(reference)
[6] = mean of log2 enrichment of variant peptide, n = 4
[7] = mean of log2 of enrichment over R1-R4
[8] = pTyr-Var library, enrichment score, replicate 1
[9] = pTyr-Var library, enrichment score, replicate 3
[10] = pTyr-Var library, enrichment score, replicate 4
[11] = variant versus reference peptide
[12] = variant versus reference peptide, significant hit TRUE/FALSE
[13] = mean of log2 enrichment of variant peptide, n = 5
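Throughout, for Fyn hit?: Hit requires p below 0.05 and at least twofold variant vs reference change plus filters.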

Molecule: DRVALYVAREG [AACS_Y117_I118V]
- difference (EPHB1 kinase domain; [5]): -0.2676
- mean of log2(variant) (EPHB1 kinase domain; [6]): -0.8888
- c-Src mean of log2(enrichment) (c-Src kinase domain; [7]): -1.464
- c-Src enrich. R1 (c-Src kinase domain; [8]): 0.3697
- c-Src enrich. R3 (c-Src kinase domain; [9]): 0.2802
- c-Src enrich. R4 (c-Src kinase domain; [10]): 0.4218
- c-Src difference (mean log2 variant - mean log2 reference) (c-Src kinase domain; [11]): -0.2397
- c-Src hit? (c-Src kinase domain; [12]): FALSE
- Jak2 mean of log2(enrichment) (Jak2; mean of log2 of enrichment over R1-R3): -0.2901
- Jak2 enrich. R1 (Jak2; [8]): 0.73
- Jak2 enrich. R3 (Jak2; [9]): 0.9423
- Jak2 difference (mean log2 variant - mean log2 reference) (Jak2; [11]): -0.3116
- Jak2 hit? (Jak2; [12]): FALSE
- Hck mean of log2(enrichment) (Hck kinase domain; mean of log2(variant) / mean of log2(reference), R1-R4): 0.6801
- Hck enrich. R1 (Hck kinase domain; [8]): 1.248
- Hck enrich. R3 (Hck kinase domain; [9]): 0.3794
- Hck enrich. R4 (Hck kinase domain; [10]): 0.204
- Hck difference (variant - reference) (Hck kinase domain; [11]): 0.1112
- Hck hit? (Hck kinase domain; [12]): FALSE
- AncSZ mean of log2(enrichment) (AncSZ kinase domain; mean of log2 of enrichment over R1-R5): -0.4041
- AncSZ enrich. R1 (AncSZ kinase domain; [8]): 1.153
- AncSZ enrich. R3 (AncSZ kinase domain; [9]): 0.7411
- AncSZ enrich. R4 (AncSZ kinase domain; [10]): 0.5554
- AncSZ enrich. R5 (AncSZ kinase domain; pTyr-Var library, enrichment score, replicate 5): 0.4897
- AncSZ difference (mean log2 variant - mean log2 reference) (AncSZ kinase domain; [11]): -0.326
- AncSZ hit? (AncSZ kinase domain; [12]): FALSE
- Fyn mean of log2(enrichment) (Fyn kinase domain [1]; [7]): -1.274
- Fyn enrich. R1 (Fyn kinase domain [1]; [8]): 0.7923
- Fyn enrich. R3 (Fyn kinase domain [1]; [9]): 0.2683
- Fyn enrich. R4 (Fyn kinase domain [1]; [10]): 0.2456
- Fyn difference (mean log2 variant - mean log2 reference) (Fyn kinase domain [1]; [11]): 0.04124
- Fyn hit? (Fyn kinase domain [1]; [12]): FALSE
- difference (MERTK kinase domain; [5]): -0.4526
- mean of log2(variant) (MERTK kinase domain; [6]): -1.84
- difference (FGFR3 kinase domain; [5]): -0.06288
- mean of log2(variant) (FGFR3 kinase domain; [13]): -0.601
- difference (Grb2 SH2 domain; Grb2 SH2, mean of log2(variant) minus mean of log2(reference)): -0.1132
- mean of log2(variant) (Grb2 SH2 domain; Grb2 SH2, mean of log2 enrichment of variant, R1-R3): -0.29
- hit? (Grb2 SH2 domain; Grb2 SH2, variant versus reference significant hit call): FALSE
- c-Abl mean of log2(enrichment) (c-Abl kinase domain; [7]): -0.7858
- c-Abl enrich. R1 (c-Abl kinase domain; [8]): 0.555
- c-Abl enrich. R3 (c-Abl kinase domain; [9]): 0.7635
- c-Abl enrich. R4 (c-Abl kinase domain; [10]): 0.4657
- c-Abl hit? (c-Abl kinase domain; [12]): FALSE
- difference (FGFR1 kinase domain [2]; [5]): -0.08555
- mean of log2(variant) (FGFR1 kinase domain [2]; [13]): -1.047
- Fes mean of log2(enrichment) (Fes; mean of log2 of enrichment over R1-R6): -0.04177
- Fes difference (mean log2 variant - mean log2 reference) (Fes; [11]): -0.2234
- Fer mean of log2(enrichment) (Fer kinase domain; [7]): -1.031
- Fer enrich. R1 (Fer kinase domain; [8]): 0.6342
- Fer enrich. R3 (Fer kinase domain; [9]): 0.3786
- Fer enrich. R4 (Fer kinase domain; [10]): 0.4545
- Fer difference (mean log2 variant - mean log2 reference) (Fer kinase domain; [11]): 0.05113
- Fer hit? (Fer kinase domain; [12]): FALSE
- difference (SHP2 C-SH2 domain; SHP2-C SH2, mean of log2(variant) minus mean of log2(reference)): -0.5364
- mean of log2(variant) (SHP2 C-SH2 domain; SHP2-C SH2, mean of log2 enrichment of variant, R1-R3): -0.6877
- hit? (SHP2 C-SH2 domain; SHP2-C SH2, variant versus reference significant hit call): FALSE
- difference (c-Src SH2 domain; [5]): -0.4301
- mean of log2(variant) (c-Src SH2 domain; mean of log2 enrichment of variant peptide, R1-R3): -1.56
- difference (EPHB2 kinase domain; [5]): 0.3459
- mean of log2(variant) (EPHB2 kinase domain; [6]): -0.6512

- phosphorylation of intact SHP2 by FGFR1 (FGFR1 kinase domain [3]): dramatically enhanced phosphorylation
- phosphorylation of intact SHP2 by Fyn (Fyn kinase domain [4]): dramatically enhanced phosphorylation
B1: SHP2 D61V: human full-length SHP2 (residues 1–526; C459E, D61V) (protein, UniProt Q06124 2-593, looked up, variant C459E D61V)
Tyrosine-protein phosphatase …: TSRRWFHPNITGVEAENLLLTRGVDGSFLARPSKSNPGDFTLSVRRNGAVTHIKIQNTGVYYDLYGGEKFATLAELVQYYMEHHGQLKEKNGDVIELKYPLNCADPTSERWFHGHLSGKEAEKLLTEKGKHGSFLVRESQSHPGDFVLSVRTGDDKGESNDGKSKVTHVMIRCQELKYDVGGGERFDSLTDLVEHYKKNPMVETLGTVLQLKQPLNTTRINAAEIESRVRELSKLAETTDKVKQGFWEEFETLQQQECKLLYSRKEGQRQENKNKNRYKNILPFDHTRVVLHDGDPNEPVSDYINANIIMPEFETKCNNSKPKKSYIATQGCLQNTVNDFWRMVFQENSRVIVMTTKEVERGKSKCVKYWPDEYALKEYGVMRVRNVKESAAHDYTLRELKLSKVGQGNTERTVWQYHFRTWPDHGVPSDPGGVLDFLEEVHHKQESIMDAGPVVVHESAGIGRTGTFIVIDILIDIIREKGVDCDIDVPKTIQMVRSQRSGMVQTEAQYRFIYMAVQHYIETLQRRIEEEQKSKRKGHEYTNIKYSLADQTSGDQSPLPPCTPTPPCAEMREDSARVYENVGLMQQQKSFR
